Earlier results on one molecule are cited in patent US20220257469A1, “PHARMACEUTICAL UNIT DOSE SYSTEMS FOR ORAL DRY SOLUTION AND SUSPENSION” (Brillian Pharma Inc., priority 2019, published 2022).

For the data set the following is noted: liquid suspension, in five days, not refrigerated.

As to `O=C(O)[C@H]1/C(=C/CO)O[C@@H]2CC(=O)N21` [Clavulanic acid], the loss of potency is on record as 30-40%.
